Reference: article PMC12610274, “Identification of Marrubiin as a Cathepsin C Inhibitor for Treating Rheumatoid Arthritis” (Molecules, 2025)

Assays:
Cat G = molecular target: T1, Cat G (Homo sapiens, UniProt P08311); test: Recombinant NSPs isolated enzyme assay, Cat G; assay type: biochemical; conditions: read-out: Cat G Enz (IC50: μM)
T1 construct: purchased MedChemExpress
Text: The protocol for evaluating the inhibitory potency of compounds against other cathepsins referred to the CTSC activity assay. Recombinant human CTSB, CTSL, CTSS and CTSK for testing were also purchased from R&D Systems Biotechnology Company. Recombinant human Cat G, NE, and PR3 For testing were purchased from MedChemExpress. A multi-functional microplate reader was used to measure the absorption of Z-Leu-Arg-AMC at excitation/emission wavelengths of 380/460 nm to assess the activity changes of CTSB and CTSL, while the absorption of MCA-Arg-Pro-Lys-Pro-Val-Glu-NVAL-Trp-Arg-Lys(DNP)-NH2 at 320/405 nm was measured to evaluate the activity changes of CTSS and CTSK. Different assay buffers were prepared for diluting samples and measuring the activities of specific NSPs: a buffer containing 50 mM Tris and 750 mM NaCl (pH 7.4) was used for NE and PR3; a buffer containing 50 mM Tris, 750 mM NaCl, 5 mM EDTA (pH 7.4) was used for Cat G; and a buffer containing 25 mM MES, 50 mM NaCl, 5 mM DTT (pH 6.0) was used for CTSC. Synthetic substrates were employed to assess the activities of NSPs and CTSC: H-Gly-Arg-AMC for CTSC, N-MeSuc-Ala-Ala-Pro-Val-pNA for NE, aminobenzoyl-Val-Ala-Asp-Cys-Ala-Asp-Gln-ethylenediamine 2,4-dinitrophenyl for PR3, and N-Suc-Ala-Ala-Pro-Phe-pNA for Cat G. Each group of tests was independently repeated at least 3 times, and IC50 values were calculated using SPSS 10.0.

CTSC [1] = molecular target: T2, CTSC (Homo sapiens, UniProt P53634); test: Human recombinant CTSC isolated enzyme assay; assay type: biochemical; parameters: purchased R&D Systems; conditions: human recombinant CTSC, cell-free, 12-point dose-response; read-out: CTSC Enz (IC50: nM)
Method: Both recombinant CTSL and CTSC for in vitro cell-free-based enzymatic activity assay can be purchased from R&D Systems (Minneapolis, MN, USA), a biotechnology company. According to the standardized procedures and material ratios provided by R&D Systems, prepare the activation solution (25 mM MES + 5 mM DTT, pH 6.0) and the assay solution (25 mM MES + 50 mM NaCl + 5 mM DTT, pH 6.0) in advance for later use. Dilute the detection substrate H-Gly-Arg-AMC to a 200 µM solution with the assay solution for standby. Prepare the working solution of compounds to be tested using the assay solution, with the concentration of working solution being 10 times the final test concentration. Dilute CTSC and CTSL, respectively, with cold activation solution. Thoroughly mix the two activation solutions containing the proteins to achieve final concentrations of 300 nM for CTSL and 440 nM for CTSC. After co-incubation for 1 h, the activated CTSC treated with CTSL can be used for the enzymatic activity inhibition efficacy test of compounds. Dilute the activated CTSC to 4.4 nM with cold assay buffer. Incubate 4 μL of the activated CTSC with 1 μL of the compound working solution (test group) or 1 μL of blank assay solution (control group) at room temperature for 3 h. Then, add 5 μL of the detection substrate to achieve a final concentration of 100 μM. Mix 5 µL each of the assay solution and the substrate solution as the blank group. After 1 h, the absorbance of detection substrate was measured using a multifunctional microplate reader at excitation/emission wavelengths of 380 nm/460 nm. The inhibitory efficacy of molecules on enzyme activity was calculated based on the absorbance difference between test group and control group. […] Each group of tests mentioned above was independently repeated at least 3 times, and IC50 values were calculated using SPSS 10.0.
Target sequence in this assay (P53634 25-134 limits assumed): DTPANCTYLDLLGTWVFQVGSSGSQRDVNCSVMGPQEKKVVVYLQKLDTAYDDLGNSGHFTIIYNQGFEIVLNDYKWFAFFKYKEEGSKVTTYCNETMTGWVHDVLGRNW
Target sequence in this assay (P53634 231-394 limits assumed): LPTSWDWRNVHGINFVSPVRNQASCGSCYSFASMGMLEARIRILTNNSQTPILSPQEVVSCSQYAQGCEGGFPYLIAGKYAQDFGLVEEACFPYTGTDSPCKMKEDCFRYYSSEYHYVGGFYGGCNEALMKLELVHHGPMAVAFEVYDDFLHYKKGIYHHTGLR
Target sequence in this assay (P53634 395-463 limits assumed): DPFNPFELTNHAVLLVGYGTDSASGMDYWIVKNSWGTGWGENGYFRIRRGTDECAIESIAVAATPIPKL

CTSC [2] = molecular target: T2, CTSC; test: CTSC activity in U937 cells after 5 days of treatment; assay type: cell-based; parameters: endogenous in cells; host or cells: U937; conditions: U937, 5 days, marrubiin and AZD7986 at the same concentration
Method: U937 cells in the logarithmic growth phase were collected and equally divided into six portions. Four of these portions were treated with DMSO solutions of the test compound at varying concentrations to achieve final concentrations of 1.25, 2.5, 5, and 10 μM, respectively. An equal volume of DMSO was added to one portion as a blank control, while another portion treated with a DMSO solution of AZD7986 served as a positive control. The cells were cultured under standard U937 conditions for 5 consecutive days, with daily medium changes and fresh compound treatments administered using the same protocol. Following 5 days of treatment, cells were harvested, washed twice thoroughly with phosphate-buffered saline, and lysed in phosphate-buffered saline containing 1% Triton X-100. The lysates were centrifuged to collect the supernatant, and protein concentrations were determined as previously described to ensure equal total protein loading across all samples. The prepared samples were stored at −20 °C until further analysis. Different assay buffers were prepared for diluting samples and measuring the activities of specific NSPs: a buffer containing 50 mM Tris and 750 mM NaCl (pH 7.4) was used for NE and PR3; a buffer containing 50 mM Tris, 750 mM NaCl, 5 mM EDTA (pH 7.4) was used for Cat G; and a buffer containing 25 mM MES, 50 mM NaCl, 5 mM DTT (pH 6.0) was used for CTSC. […]
Target sequence in this assay (P53634 25-463): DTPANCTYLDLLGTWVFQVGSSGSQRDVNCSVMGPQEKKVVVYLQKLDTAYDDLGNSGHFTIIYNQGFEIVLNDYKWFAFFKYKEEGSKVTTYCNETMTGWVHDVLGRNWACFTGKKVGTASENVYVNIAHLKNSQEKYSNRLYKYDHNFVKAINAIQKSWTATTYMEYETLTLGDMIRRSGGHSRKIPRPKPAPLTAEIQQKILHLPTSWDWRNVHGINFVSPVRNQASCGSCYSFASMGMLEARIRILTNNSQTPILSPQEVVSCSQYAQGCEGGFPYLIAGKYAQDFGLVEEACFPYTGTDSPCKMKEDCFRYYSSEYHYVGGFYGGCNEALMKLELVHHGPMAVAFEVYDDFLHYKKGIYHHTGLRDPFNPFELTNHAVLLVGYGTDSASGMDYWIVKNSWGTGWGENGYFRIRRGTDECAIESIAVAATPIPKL

T1 sequence (P08311 21-255): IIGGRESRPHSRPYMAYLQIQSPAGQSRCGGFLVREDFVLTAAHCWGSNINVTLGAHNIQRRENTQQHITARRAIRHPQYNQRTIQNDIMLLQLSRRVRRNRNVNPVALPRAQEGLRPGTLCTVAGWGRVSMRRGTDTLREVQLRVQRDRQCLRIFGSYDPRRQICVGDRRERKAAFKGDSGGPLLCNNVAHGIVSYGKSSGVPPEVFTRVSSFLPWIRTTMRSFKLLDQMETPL

## C[C@@H]1C[C@H]2OC(=O)[C@@]3(C)CCC[C@@](C)([C@@H]23)[C@@]1(O)CCc1ccoc1 [Marrubiin, marrubiin]
Cat G
  IC50: > 10 µM
CTSC [1]
  IC50: 57.5 ± 1.3 nM
CTSC [2]
  residual CTSC activity: less than 8%
